Data as given in BindingDB's records for doi:10.1021/jm00392a014 (1987).

Biological target: Cytosol aminopeptidase (Sus scrofa) (UniProt P28839)
Experiment: Compound was tested for inhibition of Leucine aminopeptidase isolated from porcine kidney; Inhibitor exhibits slow-binding behavior(k on <=1000Me-1Se-1)

Cytosol aminopeptidase (Sus scrofa), sequence (P28839 whole entry, looked up): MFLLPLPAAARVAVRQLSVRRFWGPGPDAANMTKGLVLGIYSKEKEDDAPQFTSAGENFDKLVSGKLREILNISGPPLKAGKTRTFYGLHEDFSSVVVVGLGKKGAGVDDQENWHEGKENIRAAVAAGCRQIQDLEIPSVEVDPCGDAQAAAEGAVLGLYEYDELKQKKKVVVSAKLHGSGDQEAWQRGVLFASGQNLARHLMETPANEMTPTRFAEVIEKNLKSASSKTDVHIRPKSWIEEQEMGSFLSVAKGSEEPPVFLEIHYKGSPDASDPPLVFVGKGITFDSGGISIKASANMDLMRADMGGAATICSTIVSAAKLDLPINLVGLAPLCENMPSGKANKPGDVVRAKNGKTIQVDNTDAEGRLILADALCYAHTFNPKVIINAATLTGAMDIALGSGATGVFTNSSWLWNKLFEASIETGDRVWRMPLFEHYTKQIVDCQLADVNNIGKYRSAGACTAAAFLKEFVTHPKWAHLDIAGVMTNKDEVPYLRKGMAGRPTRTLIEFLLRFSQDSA

| SMILES | Ki |
| --- | --- |
| C[C@H](N)P(=O)(O)O [1-Ammonium-ethanephosphonic acid anion] | 240 µM |
| N[C@H](Cc1ccccc1)P(=O)(O)O [(S)-1-Ammonium-2-phenyl-ethanephosphonic acid anion] | 15.4 µM |
| COP(=O)(O)C(N)CC(C)C (centres undefined) [(1-Ammonium-3-methyl-butyl)-phosphonic acid monomethyl ester] | 320 µM |
| NCP(=O)(O)O [Ammonium-methanephosphonic acid anion] | 1040 µM |
| COP(=O)(C(=O)N[C@@H](CC(C)C)C(=O)O)C(N)CC(C)C (stereo partly drawn) [2-(1-Ammonium-3-methylbutylmethoxyphosphorylcarbonylamino)-4-methyl-(2S)-pentanoate] | 1650 µM |
| COP(=O)(O)C(N)Cc1ccccc1 (centres undefined) [(1-Ammonium-2-phenyl-ethyl)-phosphonic acid monomethyl ester] | 43 µM |
| N[C@@H](Cc1ccccc1)P(=O)(O)O [[(1R)-1-amino-2-phenylethyl]phosphonic acid] | 0.42 µM |
| CC(C)CCN [3-Methyl-butylamine] | > 50000 µM |
| CC(C)CCP(=O)(O)O [(3-Methyl-butyl)-phosphonic acid] | 775 µM |
| CCCCCC(N)P(=O)(O)O (centres undefined) [1-aminohexylphosphonic acid] | 1 µM |
| CC(C)CC(N)P(N)(=O)C(=O)N[C@@H](CC(C)C)C(=O)O (stereo partly drawn) [1-[amino({[(1S)-1-carboxylateanion-3-methylbutyl]amino}carbonyl)phosphoryl]-3-methylbutan-1-aminium] | 40 µM |

Biological target: not listed separately
Experiment: as above

| SMILES | Ki |
| --- | --- |
| CCCCCCCC(N)P(=O)(O)O (centres undefined) [1-Ammonium-octane-1-phosphonic acid anion] | 470 nM |
| CC(C)C(N)P(=O)(O)O (centres undefined) [1-amino-2-methylpropylphosphonic acid] | 1200 nM |
| CCC(N)P(=O)(O)O (centres undefined) [1-aminopropylphosphonic acid] | 3600 nM |
